Values of other authors, collected in US12478681B2, “Non-activated, amorphous, pH neutral, two-part bedside-ready clay delivery system that treats pathogen infections in humans and animals” (priority 2019, dated 2025).

elemental iron
Oral dose that can cause severe toxicity, morbidity and mortality: > 60 mg/kg | Oral dose that can have toxicity symptoms: 20 to 60 mg/kg | Oral dose that is non-toxic: < 20 mg/kg
